Measured values from patent US20100292231A1, “Indazole Compounds for Treating Inflammatory Disorders, Demyelinating Disorders and Cancers” (priority 2007, published 2010).

What was measured:
Assay in all cases: SelectScreen kinase specificity survey
Type in all cases: biochemical
Settings in all cases: estimated, abridged dose response curve, read-out: Kinase inhibitory activity EC50
DYRK1A = biological target: T1, DYRK1A (Homo sapiens, UniProt Q13627)
T1 construct: purchased Invitrogen (SelectScreen platform)
Experimental: (§1) Testing of the compounds described in this invention was carried out using the SelectScreen™ platform from Invitrogen, Inc. (Carlsbad. Calif., USA) and the details of its performance are readily viewed via the web by linking to: http://www.invitrogen.com/downloads/SelectScrn_Brochure.pdf.
(§2) Briefly, the approach is based on treating each specific kinase with a unique substrate and optical reporter system in the presence of ATP at 100 micromolar. In controls, the substrate is phosphorylated and a baseline optimal response is recorded.
(§3) The compounds were then re-tested by adding graded amounts of putative inhibitor which were added in 5 separate increments to generate a dose response curve. The latter is obtained by fitting to a 4 parameter Hill equation, a sigmoid saturation equation.
(§4) The same assay system described in Example 2 can be applied in the determination of kinase specificity. It is well understood by medicinal chemists in the development of kinase inhibitors that the resulting molecules often lack specificity. Not only are homologous kinases inhibited by the same class of compounds, but also non-homologous kinases can be affected by allosteric, induced, activated vs inactivated conformation, and protein folding interactions with the putative inhibitor, which otherwise had been designed to be specific. These off target effects are difficult to predict and can only be ruled in or out by empirically surveying a large set of kinases. It is also understood that changes to scaffolds and variation in their chemical decorations may influence the extent of promiscuity in the patterns of kinase inhibition across kinase classes.
(§5) The following experiment was conducted to address this issue. The indazole compound (IV), described in Example 2 and representative of the new genus was tested along with Symadex against a panel of 230 kinases representative of all known kinases classes. Included in the survey were the Flt3, its mutant, and close relatives in the Class III receptor tyrosine kinase class, together with serine-threonine kinases and atypical kinases many of which share no homology of active site with Flt3 as shown, for example, in the respective “genecard” for each kinase and available for inspection at on the web at http://www.genecards.org/.
(§6) Table 3 lists the estimated EC50 values from an abridged dose response curve for Symadex (C-1311) and CF-123. The kinases are listed alphabetically by Group and Family.

TAOK2 (TAO1) = biological target: T2, TAOK2 (TAO1) (Homo sapiens, UniProt Q9UL54)
T2 construct: purchased Invitrogen (SelectScreen platform)
Experimental: as §1, §2, §3, §4, §5, §6

AURKC (Aurora C) = biological target: T3, AURKC (Aurora C) (Homo sapiens, UniProt Q9UQB9)
T3 construct: purchased Invitrogen, Inc. (SelectScreen service)
Experimental: as §1, §2, §3, §4, §5, §6

CDC42 BPA (MRCKA) = biological target: T4, CDC42 BPA (MRCKA) (Homo sapiens, UniProt Q5VT25)
T4 construct: purchased Invitrogen (SelectScreen platform)
Experimental: as §1, §2, §3, §4, §5, §6

MERTK (cMER) = biological target: T5, MERTK (cMER) (Homo sapiens, UniProt Q12866)
T5 construct: purchased Invitrogen (SelectScreen service)
Experimental: as §1, §2, §3, §4, §5, §6

PAK6 = biological target: T6, PAK6 (Homo sapiens, UniProt Q9NQU5)
T6 construct: purchased Invitrogen (SelectScreen platform)
Experimental: as §1, §2, §3, §4, §5, §6

MAPK11 (p38 beta) = biological target: T7, MAPK11 (p38 beta) (Homo sapiens, UniProt Q15759)
T7 construct: purchased Invitrogen (SelectScreen platform)
Experimental: as §1, §2, §3, §4, §5, §6

PTK6 (Brk) = biological target: T8, PTK6 (Brk) (Homo sapiens, UniProt Q13882)
T8 construct: purchased Invitrogen (SelectScreen)
Experimental: as §1, §2, §3, §4, §5, §6

PHKG1 = biological target: T9, PHKG1 (Homo sapiens, UniProt Q16816)
T9 construct: purchased Invitrogen, Inc. (SelectScreen platform)
Experimental: as §1, §2, §3, §4, §5, §6

HCK = biological target: T10, HCK (Homo sapiens, UniProt P08631)
T10 construct: purchased Invitrogen (SelectScreen)
Experimental: as §1, §2, §3, §4, §5, §6

AKT3 (PKB gamma) = biological target: T11, AKT3 (PKB gamma) (Homo sapiens, UniProt Q9Y243)
T11 construct: purchased Invitrogen (SelectScreen platform)
Experimental: as §1, §2, §3, §4, §5, §6

GSK3B (GSK3 beta) = biological target: T12, GSK3B (GSK3 beta) (Homo sapiens, UniProt P49841)
T12 construct: purchased Invitrogen (SelectScreen platform)
Experimental: as §1, §2, §3, §4, §5, §6

MAP2K2 (MEK2) = biological target: T13, MAP2K2 (MEK2) (Homo sapiens, UniProt P36507)
T13 construct: purchased Invitrogen (SelectScreen platform)
Experimental: as §1, §2, §3, §4, §5, §6

AXL = biological target: T14, AXL (Homo sapiens, UniProt P30530)
T14 construct: purchased Invitrogen (SelectScreen service)
Experimental: as §1, §2, §3, §4, §5, §6

MET M1250T = biological target: T15, MET M1250T (Homo sapiens, UniProt P08581, M1250T)
T15 construct: purchased Invitrogen (SelectScreen platform)
Experimental: as §1, §2, §3, §4, §5, §6

INSRR (IRR) = biological target: T16, INSRR (IRR) (Homo sapiens, UniProt P14616)
T16 construct: purchased Invitrogen (SelectScreen platform)
Experimental: as §1, §2, §3, §4, §5, §6

MARK1 (MARK) = biological target: T17, MARK1 (MARK) (Homo sapiens, UniProt Q9P0L2)
T17 construct: purchased Invitrogen, Inc. (SelectScreen platform)
Experimental: as §1, §2, §3, §4, §5, §6

JAK1 = biological target: T18, JAK1 (Homo sapiens, UniProt P23458)
T18 construct: purchased Invitrogen (SelectScreen platform)
Experimental: as §1, §2, §3, §4, §5, §6

CSF1R (FMS) = biological target: T19, CSF1R (FMS) (Homo sapiens, UniProt P07333)
T19 construct: purchased Invitrogen (SelectScreen platform)
Experimental: as §1, §2, §3, §4, §5, §6

RPS6KA6 (RSK4) = biological target: T20, RPS6KA6 (RSK4) (Homo sapiens, UniProt Q9UK32)
T20 construct: purchased Invitrogen, Inc. (SelectScreen platform)
Experimental: as §1, §2, §3, §4, §5, §6

HIPK4 = biological target: T21, HIPK4 (Homo sapiens, UniProt Q8NE63)
T21 construct: purchased Invitrogen (SelectScreen platform)
Experimental: as §1, §2, §3, §4, §5, §6

EPHA3 = biological target: T22, EPHA3 (Homo sapiens, UniProt P29320)
T22 construct: purchased Invitrogen (SelectScreen service)
Experimental: as §1, §2, §3, §4, §5, §6

PRKCI (PKC iota) = biological target: T23, PRKCI (PKC iota) (Homo sapiens, UniProt P41743)
T23 construct: purchased Invitrogen, Inc. (SelectScreen platform)
Experimental: as §1, §2, §3, §4, §5, §6

MAPK1 (ERK2) = biological target: T24, MAPK1 (ERK2) (Homo sapiens, UniProt P28482)
T24 construct: purchased Invitrogen (SelectScreen platform)
Experimental: as §1, §2, §3, §4, §5, §6

PAK4 = biological target: T25, PAK4 (Homo sapiens, UniProt O96013)
T25 construct: purchased Invitrogen (SelectScreen platform)
Experimental: as §1, §2, §3, §4, §5, §6

SGK (SGK1) = biological target: T26, SGK (SGK1) (Homo sapiens, UniProt O00141)
T26 construct: purchased Invitrogen, Inc. (SelectScreen platform)
Experimental: as §1, §2, §3, §4, §5, §6

MATK (HYL, CTK) = biological target: T27, MATK (HYL, CTK) (Homo sapiens, UniProt P42679)
T27 construct: purchased Invitrogen (SelectScreen service)
Experimental: as §1, §2, §3, §4, §5, §6

BRAF = biological target: T28, BRAF (Homo sapiens, UniProt P15056)
T28 construct: purchased Invitrogen, Inc. (SelectScreen platform)
Experimental: as §1, §2, §3, §4, §5, §6

T10 sequence (P08631 whole entry): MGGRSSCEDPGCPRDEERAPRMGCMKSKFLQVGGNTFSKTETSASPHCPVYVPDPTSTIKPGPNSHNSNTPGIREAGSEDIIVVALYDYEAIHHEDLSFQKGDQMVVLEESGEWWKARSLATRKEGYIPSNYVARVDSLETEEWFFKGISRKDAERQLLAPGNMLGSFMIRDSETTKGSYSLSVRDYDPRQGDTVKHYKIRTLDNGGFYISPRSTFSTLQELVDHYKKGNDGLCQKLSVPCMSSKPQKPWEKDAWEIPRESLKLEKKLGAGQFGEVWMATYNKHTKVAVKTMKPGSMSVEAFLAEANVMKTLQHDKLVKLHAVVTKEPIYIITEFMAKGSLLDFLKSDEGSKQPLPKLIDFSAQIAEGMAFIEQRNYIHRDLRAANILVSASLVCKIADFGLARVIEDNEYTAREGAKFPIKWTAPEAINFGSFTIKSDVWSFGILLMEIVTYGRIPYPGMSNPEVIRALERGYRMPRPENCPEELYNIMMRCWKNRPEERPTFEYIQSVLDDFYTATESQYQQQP
T27 sequence (P42679 whole entry): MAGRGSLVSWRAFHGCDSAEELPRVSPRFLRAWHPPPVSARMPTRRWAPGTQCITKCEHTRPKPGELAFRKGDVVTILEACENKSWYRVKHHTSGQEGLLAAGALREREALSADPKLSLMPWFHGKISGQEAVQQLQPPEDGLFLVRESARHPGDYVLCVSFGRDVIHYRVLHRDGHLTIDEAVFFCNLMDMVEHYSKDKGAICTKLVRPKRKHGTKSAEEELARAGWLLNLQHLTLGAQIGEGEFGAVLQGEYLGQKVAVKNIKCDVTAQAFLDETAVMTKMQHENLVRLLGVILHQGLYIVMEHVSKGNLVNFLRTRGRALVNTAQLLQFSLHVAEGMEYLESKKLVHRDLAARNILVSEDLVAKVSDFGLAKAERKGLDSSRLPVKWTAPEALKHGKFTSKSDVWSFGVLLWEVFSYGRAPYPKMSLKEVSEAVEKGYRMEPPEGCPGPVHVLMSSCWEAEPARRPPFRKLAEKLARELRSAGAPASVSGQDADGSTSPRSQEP
T3 sequence (Q9UQB9 whole entry): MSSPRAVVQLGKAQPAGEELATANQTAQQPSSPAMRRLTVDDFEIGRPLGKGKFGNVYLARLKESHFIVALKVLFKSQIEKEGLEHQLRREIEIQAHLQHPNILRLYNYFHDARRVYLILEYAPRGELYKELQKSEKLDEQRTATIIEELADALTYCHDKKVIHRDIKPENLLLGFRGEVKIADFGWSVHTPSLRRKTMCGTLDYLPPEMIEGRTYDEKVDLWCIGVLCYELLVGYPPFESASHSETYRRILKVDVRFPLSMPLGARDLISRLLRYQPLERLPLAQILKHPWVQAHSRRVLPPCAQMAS
T28 sequence (P15056 whole entry): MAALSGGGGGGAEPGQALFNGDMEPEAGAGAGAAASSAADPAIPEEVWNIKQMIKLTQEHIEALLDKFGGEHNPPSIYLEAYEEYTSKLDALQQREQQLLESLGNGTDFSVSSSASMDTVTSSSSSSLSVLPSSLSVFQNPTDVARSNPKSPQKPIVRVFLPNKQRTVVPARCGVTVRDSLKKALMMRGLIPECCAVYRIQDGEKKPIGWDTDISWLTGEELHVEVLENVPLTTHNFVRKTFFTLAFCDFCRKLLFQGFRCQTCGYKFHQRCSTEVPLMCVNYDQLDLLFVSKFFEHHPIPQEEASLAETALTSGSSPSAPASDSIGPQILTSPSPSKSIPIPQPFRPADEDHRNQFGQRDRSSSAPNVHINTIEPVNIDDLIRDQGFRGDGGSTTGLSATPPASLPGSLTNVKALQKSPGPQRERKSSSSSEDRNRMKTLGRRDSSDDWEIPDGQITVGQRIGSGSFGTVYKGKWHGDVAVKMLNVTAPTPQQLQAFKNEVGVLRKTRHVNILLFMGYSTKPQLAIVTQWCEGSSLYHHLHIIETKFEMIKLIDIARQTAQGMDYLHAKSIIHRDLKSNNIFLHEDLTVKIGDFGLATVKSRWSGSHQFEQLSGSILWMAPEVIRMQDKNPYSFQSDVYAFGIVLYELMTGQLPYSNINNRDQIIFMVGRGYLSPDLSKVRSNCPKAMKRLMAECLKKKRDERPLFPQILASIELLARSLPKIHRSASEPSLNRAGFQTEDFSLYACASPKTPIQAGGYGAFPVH
T8 sequence (Q13882 whole entry): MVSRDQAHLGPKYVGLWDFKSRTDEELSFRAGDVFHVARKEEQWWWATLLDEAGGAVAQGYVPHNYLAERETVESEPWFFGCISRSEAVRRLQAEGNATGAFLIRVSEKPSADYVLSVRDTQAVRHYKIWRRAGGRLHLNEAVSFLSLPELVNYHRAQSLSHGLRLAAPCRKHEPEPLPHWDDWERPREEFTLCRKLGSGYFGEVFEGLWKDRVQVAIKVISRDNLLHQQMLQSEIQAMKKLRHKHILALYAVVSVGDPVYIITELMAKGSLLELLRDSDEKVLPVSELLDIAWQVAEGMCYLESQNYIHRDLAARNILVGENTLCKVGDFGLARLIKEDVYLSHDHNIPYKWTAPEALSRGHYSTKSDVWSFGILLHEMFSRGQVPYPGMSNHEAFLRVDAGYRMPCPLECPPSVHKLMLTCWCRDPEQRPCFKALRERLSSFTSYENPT
T4 sequence (Q5VT25 whole entry): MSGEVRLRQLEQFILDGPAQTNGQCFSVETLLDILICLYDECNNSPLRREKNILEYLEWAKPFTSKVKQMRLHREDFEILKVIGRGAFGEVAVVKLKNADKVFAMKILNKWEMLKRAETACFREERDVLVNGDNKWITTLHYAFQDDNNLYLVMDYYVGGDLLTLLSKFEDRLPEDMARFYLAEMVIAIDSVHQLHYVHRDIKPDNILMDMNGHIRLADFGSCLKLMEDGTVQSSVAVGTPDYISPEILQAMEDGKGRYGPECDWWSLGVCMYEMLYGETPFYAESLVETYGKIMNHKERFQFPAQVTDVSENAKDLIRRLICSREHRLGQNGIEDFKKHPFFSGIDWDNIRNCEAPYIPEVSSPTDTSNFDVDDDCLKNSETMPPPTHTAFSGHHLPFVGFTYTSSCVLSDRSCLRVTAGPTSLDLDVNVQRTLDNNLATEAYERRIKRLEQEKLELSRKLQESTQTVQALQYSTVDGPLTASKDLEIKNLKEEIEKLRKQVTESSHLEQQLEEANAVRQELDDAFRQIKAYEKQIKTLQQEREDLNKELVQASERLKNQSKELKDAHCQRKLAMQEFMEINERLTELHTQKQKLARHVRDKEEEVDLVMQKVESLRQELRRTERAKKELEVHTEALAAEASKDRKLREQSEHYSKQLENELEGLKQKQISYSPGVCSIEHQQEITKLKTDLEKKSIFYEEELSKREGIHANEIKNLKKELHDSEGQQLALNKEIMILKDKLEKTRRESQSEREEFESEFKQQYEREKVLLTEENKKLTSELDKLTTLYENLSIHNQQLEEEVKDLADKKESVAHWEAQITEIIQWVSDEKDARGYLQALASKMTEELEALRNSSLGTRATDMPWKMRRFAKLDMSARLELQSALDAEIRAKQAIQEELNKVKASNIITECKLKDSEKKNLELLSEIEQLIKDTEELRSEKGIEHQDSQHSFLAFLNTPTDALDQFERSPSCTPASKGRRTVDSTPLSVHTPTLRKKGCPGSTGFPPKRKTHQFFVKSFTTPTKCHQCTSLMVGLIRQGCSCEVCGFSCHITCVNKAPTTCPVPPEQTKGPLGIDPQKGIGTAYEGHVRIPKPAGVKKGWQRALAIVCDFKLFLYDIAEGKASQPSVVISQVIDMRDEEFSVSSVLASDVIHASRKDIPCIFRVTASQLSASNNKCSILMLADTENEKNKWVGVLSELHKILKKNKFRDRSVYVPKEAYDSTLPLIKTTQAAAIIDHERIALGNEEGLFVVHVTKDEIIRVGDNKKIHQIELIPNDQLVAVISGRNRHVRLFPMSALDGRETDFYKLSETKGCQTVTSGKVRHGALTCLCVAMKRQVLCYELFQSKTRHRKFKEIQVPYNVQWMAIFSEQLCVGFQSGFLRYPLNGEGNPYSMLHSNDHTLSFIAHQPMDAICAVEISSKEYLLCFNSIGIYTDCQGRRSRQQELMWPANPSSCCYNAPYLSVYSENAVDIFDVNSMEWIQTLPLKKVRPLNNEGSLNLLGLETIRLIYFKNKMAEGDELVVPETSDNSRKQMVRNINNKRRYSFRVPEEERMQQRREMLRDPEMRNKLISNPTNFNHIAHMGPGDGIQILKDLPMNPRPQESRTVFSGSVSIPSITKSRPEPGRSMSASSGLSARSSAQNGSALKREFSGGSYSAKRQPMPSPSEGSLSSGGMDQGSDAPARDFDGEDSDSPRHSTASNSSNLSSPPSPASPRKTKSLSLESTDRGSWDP
T13 sequence (P36507 whole entry): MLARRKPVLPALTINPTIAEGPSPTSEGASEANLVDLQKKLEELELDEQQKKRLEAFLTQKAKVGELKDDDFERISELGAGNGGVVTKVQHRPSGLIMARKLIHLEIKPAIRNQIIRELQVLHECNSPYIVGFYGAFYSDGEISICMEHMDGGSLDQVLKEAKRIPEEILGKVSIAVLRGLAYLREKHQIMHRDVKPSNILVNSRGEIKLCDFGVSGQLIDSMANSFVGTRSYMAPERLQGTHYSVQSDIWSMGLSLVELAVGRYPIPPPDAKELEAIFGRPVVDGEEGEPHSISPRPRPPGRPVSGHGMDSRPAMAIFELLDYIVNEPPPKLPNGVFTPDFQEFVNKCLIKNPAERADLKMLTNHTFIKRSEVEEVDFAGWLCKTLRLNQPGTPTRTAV
T24 sequence (P28482 whole entry): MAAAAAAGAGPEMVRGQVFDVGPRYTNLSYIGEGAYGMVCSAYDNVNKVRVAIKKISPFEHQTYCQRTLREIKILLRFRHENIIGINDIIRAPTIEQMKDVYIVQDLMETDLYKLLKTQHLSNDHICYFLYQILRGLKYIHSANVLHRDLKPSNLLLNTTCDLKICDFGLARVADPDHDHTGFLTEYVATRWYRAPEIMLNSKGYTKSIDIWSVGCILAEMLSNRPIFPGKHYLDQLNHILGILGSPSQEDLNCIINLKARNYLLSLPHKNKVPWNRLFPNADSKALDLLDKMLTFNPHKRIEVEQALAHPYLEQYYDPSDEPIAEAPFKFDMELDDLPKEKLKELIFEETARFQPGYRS

| Compound | EC50 (DYRK1A) [µM] | EC50 (TAOK2 (TAO1)) [µM] | EC50 (AURKC (Aurora C)) [µM] | EC50 (CDC42 BPA (MRCKA)) [µM] | EC50 (MERTK (cMER)) [µM] | EC50 (PAK6) [µM] | EC50 (MAPK11 (p38 beta)) [µM] | EC50 (PTK6 (Brk)) [µM] | EC50 (PHKG1) [µM] | EC50 (HCK) [µM] | EC50 (AKT3 (PKB gamma)) [µM] | EC50 (GSK3B (GSK3 beta)) [µM] | EC50 (MAP2K2 (MEK2)) [µM] | EC50 (AXL) [µM] | EC50 (MET M1250T) [µM] | EC50 (INSRR (IRR)) [µM] | EC50 (MARK1 (MARK)) [µM] | EC50 (JAK1) [µM] | EC50 (CSF1R (FMS)) [µM] | EC50 (RPS6KA6 (RSK4)) [µM] | other results |
| --- | --- | --- | --- | --- | --- | --- | --- | --- | --- | --- | --- | --- | --- | --- | --- | --- | --- | --- | --- | --- | --- |
| CN(C)CCCNc1ccc2ncn3c4ccc5[nH]ncc5c4c(=O)c1c23 [Compound (IV)] | 0.468 | > 5 | > 5 | > 5 | > 5 | > 5 | > 5 | > 5 | 1.01 | 2.28 | > 5 | > 5 | > 5 | 4.44 | > 5 | 1.15 | > 5 | > 5 | 0.205 | 0.655 | EC50 (HIPK4): 1.31 µM; EC50 (EPHA3): > 5 µM; EC50 (PRKCI (PKC iota)): > 5 µM; EC50 (MAPK1 (ERK2)): > 5 µM; EC50 (PAK4): > 5 µM; EC50 (SGK (SGK1)): 3.45 µM; EC50 (MATK (HYL, CTK)): > 5 µM; EC50 (BRAF): 1.44 µM |
| CCN(CC)CCNc1ccc2ncn3c4ccc(O)cc4c(=O)c1c23 [Symadex, 5-(2-(diethylamino)ethylamino)-8-hydroxy-6H-imidazo[4,5,1-de]acridin-6-one, reference compound] | 0.708 | > 5 | > 5 | > 5 | 3.6 | > 5 | > 5 | > 5 | 2.2 | 3.98 | > 5 | > 5 | > 5 | 3.77 | > 5 | > 5 | 3.19 | > 5 | 0.428 | 0.182 | EC50 (HIPK4): 1.82 µM; EC50 (EPHA3): > 5 µM; EC50 (PRKCI (PKC iota)): > 5 µM; EC50 (MAPK1 (ERK2)): > 5 µM; EC50 (PAK4): > 5 µM; EC50 (SGK (SGK1)): 2.71 µM; EC50 (MATK (HYL, CTK)): > 5 µM; EC50 (BRAF): 4.45 µM |
